Measurements taken from patent US20030176503A1, “Treating hepatitis C viral infections with thiosemicarbazone compounds” (priority 2001, published 2003).

How the values were obtained:
[1] = test system: HCV replication in Huh7_HBI10A cells containing a HCV-replicon; assay: RHEPLISA assay, cell-based assay for measuring HCV replication (NS3 ELISA); parameters: species or system hepatitis C virus; conditions: at 40 μM
Protocol: A cell-based assay for measuring the HCV replication (RHEPLISA) was developed in a 96-well microplate format. The assay utilizes Huh-7 cellular clone (Huh7_HBI10A) containing a HCV-replicon and is based on the detection of the viral NS3 protein by ELISA. About 5000 Huh7_HBI10A cells (or Huh-7 cells as negative control), resuspended in 100 μL of complete DMEM were seeded into each well of a 96 well microtiter plate (Falcon sterile by Becton Dickinson). After 4 hours, 50 μL of an appropriate dissolution medium (e.g., DMEM) containing the compounds to test or DMSO (3%) were added, and incubated (37° C., 5% CO2) for 4 days. The medium was removed by inversion and the cells were fixed by addition of 200 μ/well of ice-cold isopropanol 100%. […]
When secondary antibody AP-conjugated was used, 100 μL of AP substrate (SIGMA 104 Phosphatase substrate tablets; i.e., one tablet in 5 ml of AP buffer: diethanolamine solution 10%, pH 9.6-9.8.) were added to each well, and the plate was read in a conventional ELISA plate reader set at 405-620 nm.
When peroxidase-conjugated secondary was used, 100 μL of TMB substrate (SIGMA) were added to each well, and the plate was incubated for 20′ in the dark. 50 μL of 0.5M H2SO4 were then added, and the plate was read in a conventional ELISA plate reader set at 450-620 nm.

Huh7_HBI10A cells = assay: Cytotoxicity assay (SRB); assay type: cell-based, human; conditions: at 40 μM
Protocol: About 5000 Huh7_HBI10A cells, resuspended in 100 μL of complete DMEM were seeded into each well of a 96 well microtiter plate (Falcon sterile by Becton Dickinson) and incubated (37° C., 5% CO2) for 24 hours. The medium was removed and the cells were fixed by incubation with 50 μL of 50% TCA for 1 hour at 4° C., 200 μL of ice-cold isopropanol 100% for 20 minutes at 4° C., or 100 μL of 10% paraformaldehyde for 20 minutes at room temperature. The plate was washed with water when either TCA or paraformaldehyde was used to fix the cells and with PBS 1× when isopropanol was used to fix the cells. All washings were run 3 times. After drying the plate, 200 μL of SRB 1× solution (prepared fresh from a SRB solution 10×: 4% sulforhodamine B (Sigma) in 10% acetic acid) was added to each well and incubated for 30 minutes at room temperature. The SRB 1× solution was removed by inversion and the plate was washed in 1% acetic acid 3 times. To each well was added 200 μL of 10 mM Tris pH 10.5, the plate was shaken till the color of the solution in the wells was uniform, and the plate was read in a conventional ELISA plate reader set at 570 nm.

Compound: NC(=S)NN=Cc1ccccc1 [benzaldehyde thiosemicarbazone]
- anti-HCV activity in the RHEPLISA assay [1]: no anti-HCV activity
- cytotoxic inhibition (Huh7_HBI10A cells): no cytotoxic inhibition
